Laboratory results: patent US20240360114A1 (SIRONAX LTD., priority 2021, published 2024)

Tested on: HT-1080 cells
Test: HT-1080 cell viability assay (ferroptosis induced by RSL3, Cell Titer-Glo)
Assay type: cell-based
Conditions: ferroptosis inducer RSL3, 20 hours, ferroptosis inhibitory activity
Summary of the method: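 EC50 fitted by sigmoidal dose-response regression on luminescent viability data normalized to untreated cells. Compounds ran as a 10-point, 3-fold series from 1.1 μM alongside RSL3 for 20 hours, after overnight seeding.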

[1] = Homo sapiens, HT-1080, 20 h, Table 2
[2] = Homo sapiens, HT-1080, 20 h, Table 3

Structure (SMILES)	EC50 [1] [nM]	other results
NC1CC2(C1)CC(Nc1ccc3cc(N4CCC(O)(C(F)(F)F)CC4)ccc3c1)C2 (stereo not shown) [Compound 620, 1-(6-((6-aminospiro[3.3]heptan-2-yl)amino)naphthalen-2-yl)-4-(trifluoromethyl)piperidin-4-ol]	–	EC50 [2]: 0.1 to 100 nM
NC1C[C@@H]2CC(Nc3ccc(N4CCC(C(F)(F)F)CC4)cc3)C[C@@H]2C1 (stereo partly drawn) [Compound 363, (3aR, 6aS)-N2-(4-(4-(trifluoromethyl)piperidin-1-yl)phenyl) octahydropentalene-2,5-diamine]	0.1 to 100	–
Cc1cc(N2CCC(C(F)(F)F)C2)ccc1NC[C@H]1CC[C@H](N)CC1 (stereo partly shown) [Compound 419, N-(((1r,4r)-4-aminocyclohexyl)methyl)-2-methyl-4-(3-(trifluoromethyl)pyrrolidin-1-yl)aniline]	0.1 to 100	–
CC(C)(C)c1ccc(NC2CCC(NC(=O)C3CNCCN3)CC2)cc1 (stereo not shown) [Compound 215, N-(4-((4-(tert-butyl)phenyl)amino)cyclohexyl) piperazine-2-carboxamide]	0.1 to 100	–
Cc1nc(N2CCC3(CCCOC3)CC2)ccc1NC[C@H]1CC[C@H](N)CC1 [Compound 581, N-(((1r,4r)-4-aminocyclohexyl)methyl)-2-methyl-6-(2-oxa-9-azaspiro [5.5]undecan-9-yl)pyridin-3-amine]	–	EC50 [2]: 0.1 to 100 nM
CCC(C)(C)c1ccc(NC2CC3(CC(N)C3)C2)cc1 (stereo not shown) [Compound 369, N2-(4-(tert-pentyl)phenyl)spiro[3.3]heptane-2,6-diamine]	0.1 to 100	–
CCNc1ccc2cc(NC3CC4(CC(N)C4)C3)ccc2c1 (stereo not shown) [Compound 658, N2-(6-aminospiro[3.3]heptan-2-yl)-N^6-ethylnaphthalene-2,6-diamine]	–	EC50 [2]: 0.1 to 100 nM
CC1CN(c2ccc3cc(NC4CC5(CC(N)C5)C4)ccc3c2)CCO1 (stereo not shown) [Compound 648]	–	EC50 [2]: 0.1 to 100 nM
NC1CCC(Nc2ccc(C3CCC3)cc2)CC1 (stereo not shown) [Compound 318A, 1-N-(4-cyclobutylphenyl)cyclohexane-1,4-diamine]	–	EC50 (Homo sapiens, Table 2): 0.1 to 100 nM
CC1CN(c2ccc(NC3CC4(CC(N)C4)C3)cc2F)CC(C)N1CC(F)(F)F (stereo not shown) [Compound 535]	–	EC50 (Table 2): 0.1 to 100 nM
NC(=O)[C@@H]1CCC(Nc2ccc(N3CCC(C(F)(F)F)CC3)cc2)[C@@H](N)C1 (stereo in doubt) [Compound 502, (1R,3S)-3-amino-4-((4-(4-(trifluoromethyl)piperidin-1-yl)phenyl)amino)cyclohexane-1-carboxamide]	–	EC50 (Homo sapiens, Table 2): 0.1 to 100 nM
N[C@H]1CC[C@H](CNc2ccc(N3CCC(C(F)(F)F)CC3)cc2)CC1 [Compound 356, N-(((1r,4r)-4-aminocyclohexyl)methyl)-4-(4-(trifluoromethyl)piperidin-1-yl)aniline]	0.1 to 100	–
Cc1nc(NCC(F)(F)F)ccc1NC1CC2(CC(N)C2)C1 (stereo not shown) [Compound 557, N3-(6-aminospiro [3.3]heptan-2-yl)-6-methyl-N2-(2,2,2-trifluoroethyl)pyridine-2,5-diamine]	0.1 to 100	–
CC(C)C1CCN(c2ncc(NC3C[C@H]4CC(NO)C[C@H]4C3)cn2)CC1 (stereo partly drawn) [Compound 401, N-((3aR, 6aS)-5-(hydroxyamino)octahydropentalen-2-yl)-2-(4-isopropylpiperidin-1-yl) pyrimidin-5-amine]	0.1 to 100	–
C[C@@H]1CN(c2ccc(NC3CC4(CC(N)C4)C3)c(OC(F)F)n2)C[C@H](C)O1 (stereo partly drawn) [Compound 637, N^2-(2-(difluoromethoxy)-6-((25,6R)-2,6-dimethylmorpholino)pyridin-3-yl)spiro[3.3]heptane-2,6-diamine]	–	EC50 [2]: 0.1 to 100 nM

The next lines start with results.

EC50 [1] [nM]	Structure (SMILES)	other results
100 to 1000	NC1CCC(Nc2cccc(N3CCC(C(F)(F)F)CC3)c2)CC1 (stereo not shown) [Compound 384, N1-(3-(4-(trifluoromethyl)piperidin-1-yl)phenyl)cyclohexane-1,4-diamine]	–
100 to 1000	CC1CCC(Nc2ccc(C(C)(C)C)cc2)CC1 (stereo not shown) [Compound 334, 4-(tert-butyl)-N-(4-methylcyclohexyl)aniline]	–
0.1 to 100	CN[C@H]1CC[C@H](CNc2ccc(N3CC(C)OC(C)C3)cc2)CC1 (stereo partly shown) [Compound 420, 4-(2,6-dimethylmorpholino)-N-(((1r,4r)-4-(methylamino)cyclohexyl)methyl)aniline]	–
100 to 1000	CC[C@@H]1CN(c2ccc(NC3CCC(N)CC3)c(C)n2)C[C@H](C)O1 (stereo partly drawn) [Compound 551, N1-(6-((2R,6S)-2-ethyl-6-methylmorpholino)-2-methylpyridin-3-yl)cyclohexane-1,4-diamine]	–
100 to 1000	CCC(C)(C)c1ccc(NC2CCC(O)CC2)cc1 (stereo not shown) [Compound 298, 4-((4-(tert-pentyl)phenyl)amino)cyclohexan-1-ol]	–
0.1 to 100	CC1CN(c2ccc(NC3CC4(CC(N)C4)C3)c(F)c2)CC(C)O1 (stereo not shown) [Compound 461, N2-(4-(2,6-dimethylmorpholino)-2-fluorophenyl)spiro[3.3]heptane-2,6-diamine]	–
100 to 1000	CCc1ccc(NC2CCC(N)CC2)cc1C (stereo not shown) [Compound 304, N1-(4-ethyl-3-methylphenyl)cyclohexane-1,4-diamine]	–
0.1 to 100	CCC(C)(C)c1ccc(NC2CCC(N)C2)cc1 (stereo not shown) [Compound 272, N^1-(4-(tert-pentyl)phenyl)cyclopentane-1,3-diamine]	–
0.1 to 100	CN(C)C1CCC(Nc2ccc(N3CCC(C(F)(F)F)CC3)cc2)CC1 (stereo not shown) [Compound 8, N1,N1-dimethyl-N4-(4-(4-(trifluoromethyl)piperidin-1-yl)phenyl)cyclohexane-1,4-diamine]	–
0.1 to 100	CC(C)C1CCN(c2ncc(NC[C@H]3CC[C@H](C(N)=O)CC3)cn2)CC1 [Compound 423, (1r,4r)-4-(((2-(4-isopropylpiperidin-1-yl)pyrimidin-5-yl)amino)methyl)cyclohexane-1-carboxamide]	–
1000 to 10000	CC(C)C1CCN(c2ncc(NC34CC(N)(C3)C4)cn2)CC1 [Compound 434, N1-(2-(4-isopropylpiperidin-1-yl)pyrimidin-5-yl)bicyclo[1.1.1]pentane-1,3-diamine]	–
0.1 to 100	CC1(C)CCC(c2ccc(NC3CC(CN)C3)cc2)CC1 (stereo not shown) [Compound 84, N-(3-(aminomethyl)cyclobutyl)-4-(4,4-dimethylcyclohexyl)aniline]	–
1000 to 10000	CC(C)(C)c1ccc(NCCN2CCOCC2)cc1 [Compound 206, U4-(tert-butyl)-N-(2-morpholinoethyl)aniline]	–
